Results on one compound are retold here after paper PMC3608555, “The HopQ1 Effector’s Nucleoside Hydrolase-Like Domain Is Required for Bacterial Virulence in Arabidopsis and Tomato, but Not Host Recognition in Tobacco” (PLoS ONE, 2013).

Molecules are shown by their SMILES.

The test addresses RihB (MBP:RihB) (Escherichia coli, UniProt P33022). As to conditions: high activity, data not shown.

RihB (MBP:RihB), sequence (P33022 whole entry): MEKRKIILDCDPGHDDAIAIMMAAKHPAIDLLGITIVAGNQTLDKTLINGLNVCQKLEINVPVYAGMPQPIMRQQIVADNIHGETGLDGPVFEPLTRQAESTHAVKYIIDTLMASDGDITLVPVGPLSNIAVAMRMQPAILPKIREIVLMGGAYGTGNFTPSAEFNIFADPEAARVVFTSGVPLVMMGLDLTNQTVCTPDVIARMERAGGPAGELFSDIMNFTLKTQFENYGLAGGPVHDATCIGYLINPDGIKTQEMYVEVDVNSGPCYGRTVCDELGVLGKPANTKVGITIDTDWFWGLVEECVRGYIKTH

As for `O=c1ccn([C@@H]2O[C@H](CO)[C@@H](O)[C@H]2O)c(=O)[nH]1` [uridine], the “nucleoside hydrolase activity assay” value was “MBP:RihB showed high enzymatic activity for cytidine and uridine”.
